Values quoted from earlier work as cited in patent US20090186859A1, “DIAZENIUMDIOLATED NON-STEROIDAL ANTI-INFLAMMATORY DRUGS, COMPOSITIONS THEREOF, AND RELATED METHODS” (THE UNITED STATES OF AMERICA, AS REPRESENTED BY THE SEC., …, priority 2006, published 2009).

Tests used:
tumor = conditions: APC(Min)+ mouse model
[1] = long-term administration to animals
colon carcinogenesis = conditions: AOM-treated rat model
[2] = system: colonic aberrant crypt foci; conditions: male F344 rats
[3] = system: hormone-positive tumors (estrogen receptor (ER) or progesterone receptor (PR)-positive); conditions: women who took aspirin seven or more times a week vs women who did not take it
colon polyp formation = conditions: those at high risk, including those already treated for colorectal cancer
intestinal tumorigenesis = conditions: APC (DELTA 716) mice

Compound: CC(C(=O)O)c1ccc(-c2ccccc2)c(F)c1 (stereo not drawn) [flurbiprofen]
- anti-tumor effects (tumor): demonstrated anti-tumor effects

Compound: O=NN1CCC[C@H]1C(=O)O [N-nitrosoproline]
- tumorigenicity [1]: none of these studies showed it to be tumorigenic

Compound: CC(C)Cc1ccc(C(C)C(=O)O)cc1 (stereo not drawn) [ibuprofen]
- inhibition of colon carcinogenesis (colon carcinogenesis): effectively inhibit colon carcinogenesis

Compound: CS(=O)(=O)Nc1ccc([N+](=O)[O-])cc1Oc1ccccc1 [nemisulide]
- formation of colonic aberrant crypt foci [2]: inhibit formation of colonic aberrant crypt foci

Compound: CC(=O)Oc1ccccc1C(=O)O [aspirin, acetylsalicylic acid]
- lower risk of developing hormone-positive tumors [3]: 26%
- colon polyp formation (colon polyp formation): significantly reduce colon polyp formation
- inhibition of colon carcinogenesis (colon carcinogenesis): effectively inhibit colon carcinogenesis

Compound: CS(=O)(=O)c1ccc(C2=C(c3ccc(F)c(F)c3)C(=O)OC2)cc1 [MF-Tricyclic]
- intestinal tumorigenesis (intestinal tumorigenesis): blocks intestinal tumorigenesis

Compound: COc1ccc2cc(CCC(C)=O)ccc2c1 [nabumetone]
- formation of colonic aberrant crypt foci [2]: inhibit formation of colonic aberrant crypt foci

Compound: COc1ccc2c(c1)c(CC(=O)O)c(C)n2C(=O)c1ccc(Cl)cc1 [indomethacin]
- inhibition of colon carcinogenesis (colon carcinogenesis): effectively inhibit colon carcinogenesis

Compound: CN1C(C(=O)Nc2ccccn2)=C(O)c2ccccc2S1(=O)=O [piroxicam]
- inhibition of colon carcinogenesis (colon carcinogenesis): effectively inhibit colon carcinogenesis

Compound: CC1=C(CC(=O)O)c2cc(F)ccc2/C1=C\c1ccc([S+](C)[O-])cc1 (stereo not drawn) [sulindac]
- inhibition of colon carcinogenesis (colon carcinogenesis): effectively inhibit colon carcinogenesis
